Measurements reported in ChEMBL document CHEMBL1201862, “PubChem BioAssay data set” (2004).
Activity calls are given as the source filed them.

Assays:
[1] = reduction of Shn3 3'UTR-driven luciferase in osteoblasts – cell-based, Clone20 osteoblasts, firefly luciferase, cherry-picked, dose response (AID 624132); format: functional;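 note: firefly luciferase luminescence from reporter carrying the Shn3 3'UTR in osteoblasts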
[2] = loss of viability in HepG2 cells – cell-based, CellTiter-Glo, cherry-picked, cytotoxicity control for Shn3 inhibitor project, dose response (AID 624134); format: functional
[3] = non-specific 3'UTR reporter inhibition in Clone20-Shn3RL – cell-based, Renilla luciferase, cherry-picked, counter-screen for Shn3 inhibitor project, dose response (AID 624133); format: functional
Protein skinhead-1 = target: T1, Protein skinhead-1 (Caenorhabditis elegans, UniProt P34707); format: functional
T1 sequence (P34707 whole entry): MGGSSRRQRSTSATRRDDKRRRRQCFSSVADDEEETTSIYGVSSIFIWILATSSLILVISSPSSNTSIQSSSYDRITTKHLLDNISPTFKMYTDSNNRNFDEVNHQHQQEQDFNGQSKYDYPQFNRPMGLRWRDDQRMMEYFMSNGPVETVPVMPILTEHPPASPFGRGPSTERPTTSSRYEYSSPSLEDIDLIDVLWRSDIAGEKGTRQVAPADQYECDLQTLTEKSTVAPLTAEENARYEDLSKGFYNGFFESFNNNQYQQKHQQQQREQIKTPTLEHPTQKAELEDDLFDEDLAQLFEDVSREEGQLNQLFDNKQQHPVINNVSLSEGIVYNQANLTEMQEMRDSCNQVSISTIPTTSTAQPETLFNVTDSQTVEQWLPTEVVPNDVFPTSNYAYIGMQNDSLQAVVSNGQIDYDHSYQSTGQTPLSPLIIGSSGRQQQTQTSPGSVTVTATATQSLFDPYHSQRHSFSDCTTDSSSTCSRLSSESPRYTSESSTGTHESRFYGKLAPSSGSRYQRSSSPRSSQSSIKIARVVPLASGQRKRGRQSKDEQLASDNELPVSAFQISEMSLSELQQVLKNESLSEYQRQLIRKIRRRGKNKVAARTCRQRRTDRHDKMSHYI

[4] = target: T2, High affinity choline transporter 1 (Homo sapiens, UniProt Q9GZV3); experiment: human choline transporter blockers, potency – cell-based, 5-point CRC, membrane potential dye, dose response (AID 504840); format: functional
T2 sequence (Q9GZV3 whole entry): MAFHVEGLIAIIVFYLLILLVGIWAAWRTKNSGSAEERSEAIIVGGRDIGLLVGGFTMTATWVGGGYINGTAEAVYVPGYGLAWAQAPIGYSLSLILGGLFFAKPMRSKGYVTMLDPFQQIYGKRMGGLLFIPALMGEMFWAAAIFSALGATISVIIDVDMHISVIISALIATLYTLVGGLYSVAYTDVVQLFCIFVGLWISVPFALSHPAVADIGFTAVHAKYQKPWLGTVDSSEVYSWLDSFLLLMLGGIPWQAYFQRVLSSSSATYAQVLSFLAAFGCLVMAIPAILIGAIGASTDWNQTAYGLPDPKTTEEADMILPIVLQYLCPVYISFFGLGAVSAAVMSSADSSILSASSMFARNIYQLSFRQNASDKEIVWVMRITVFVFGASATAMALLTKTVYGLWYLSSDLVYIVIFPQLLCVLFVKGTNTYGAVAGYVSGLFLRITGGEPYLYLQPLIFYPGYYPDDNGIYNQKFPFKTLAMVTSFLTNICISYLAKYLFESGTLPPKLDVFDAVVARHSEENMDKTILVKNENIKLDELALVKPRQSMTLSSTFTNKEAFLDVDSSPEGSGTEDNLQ

cells [5] = format: functional, cell-based
cells [6] = format: functional, cell-based; remark: listed apart in the source
[7] = target: Heat shock protein HSP 90-alpha (Homo sapiens, UniProt P07900); format: functional, organism-based
[8] = target: T3, Ubiquitin-conjugating enzyme E2 N (Homo sapiens, UniProt P61088); format: functional;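 note: Dose-response confirmation in a TR-FRET assay detecting UBC13-driven polyubiquitin chain formation, inhibition measured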
T3 sequence (P61088 whole entry): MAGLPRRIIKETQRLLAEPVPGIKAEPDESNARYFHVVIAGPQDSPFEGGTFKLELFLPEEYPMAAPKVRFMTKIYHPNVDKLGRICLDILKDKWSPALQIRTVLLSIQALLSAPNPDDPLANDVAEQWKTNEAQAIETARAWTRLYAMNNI

[9] = target: T4, Microphthalmia-associated transcription factor (Homo sapiens, UniProt O75030); experiment: reducers of TRPM1 reporter luminescence, concentration series – cell-based, SK-MEL-5, cherry-picked, set 3, MITF inhibitor project, dose response (AID 493073); format: functional;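 note: SK-MEL-5 melanoma cells with luciferase driven by the MITF target TRPM1 promoter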
T4 sequence (O75030 whole entry): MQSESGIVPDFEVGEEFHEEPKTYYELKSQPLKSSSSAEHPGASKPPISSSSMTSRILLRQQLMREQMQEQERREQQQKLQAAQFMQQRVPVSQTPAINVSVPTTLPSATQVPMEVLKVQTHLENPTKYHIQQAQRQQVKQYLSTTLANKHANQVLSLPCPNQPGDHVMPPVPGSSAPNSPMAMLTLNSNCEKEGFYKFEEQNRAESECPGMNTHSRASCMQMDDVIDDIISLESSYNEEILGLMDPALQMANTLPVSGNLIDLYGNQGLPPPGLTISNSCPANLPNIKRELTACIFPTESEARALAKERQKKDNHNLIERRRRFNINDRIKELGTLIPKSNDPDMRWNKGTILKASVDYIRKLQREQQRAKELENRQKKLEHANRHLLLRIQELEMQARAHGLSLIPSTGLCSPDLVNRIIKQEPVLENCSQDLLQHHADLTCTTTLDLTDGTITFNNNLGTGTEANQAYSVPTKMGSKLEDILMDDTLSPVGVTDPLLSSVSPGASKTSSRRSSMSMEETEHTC

[10] = microbe, parasite or virus in culture; format: functional; conditions: Mycobacterium tuberculosis
Streptokinase A = target: T5, Streptokinase A (Streptococcus pyogenes serotype M1, UniProt P10520); experiment: viability-normalized secreted streptokinase activity reduction – plasminogen activation absorbance, OD405, dose response (AID 1914); format: functional, Streptococcus pyogenes M1 GAS;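 note: secreted streptokinase activity via plasminogen activation per viability signal from cell pellet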
T5 sequence (P10520 whole entry): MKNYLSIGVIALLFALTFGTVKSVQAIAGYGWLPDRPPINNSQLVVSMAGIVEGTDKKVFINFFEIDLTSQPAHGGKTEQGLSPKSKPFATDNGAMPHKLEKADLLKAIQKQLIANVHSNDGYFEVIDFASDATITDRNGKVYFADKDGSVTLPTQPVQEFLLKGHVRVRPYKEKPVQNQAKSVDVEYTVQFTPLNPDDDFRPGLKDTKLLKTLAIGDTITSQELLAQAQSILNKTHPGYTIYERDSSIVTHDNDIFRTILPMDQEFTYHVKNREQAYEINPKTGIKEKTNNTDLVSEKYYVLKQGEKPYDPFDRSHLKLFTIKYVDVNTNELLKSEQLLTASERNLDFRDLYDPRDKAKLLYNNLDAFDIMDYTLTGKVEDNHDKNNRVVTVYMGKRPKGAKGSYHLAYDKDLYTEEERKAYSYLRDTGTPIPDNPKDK

[11] = target: T6, Polyadenylate-binding protein 1 (Homo sapiens, UniProt P11940); experiment: MLLE domain peptide-binding blockers, IC50 – biochemical, fluorescence polarization, FITC-PAM2 peptide, dose response (AID 602259); format: functional; conditions: read-out: IC50_Mean
[12] = target: T6, Polyadenylate-binding protein 1; experiment: MLLE binding blockers, Cy5 peptide tracer – biochemical, fluorescence polarization, Cy5-PAM2 peptide, secondary, miRNA deadenylation inhibitor project, dose response (AID 602260); format: functional; conditions: read-out: IC50_Mean
Streptococcus = experiment: GAS UMAA2166 growth inhibition – luminescence, BacTiterGlo, counter-screen for streptokinase expression inhibitor project, dose response (AID 1915); format: functional, organism-based;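 note: potency for reduction of bacterial viability or growth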
[13] = target: T7, Replicative DNA helicase DnaB (Mycobacterium tuberculosis, UniProt P9WMR3); experiment: DnaB intein splicing inhibitors, dose response, biochemical, cell-free fluorescence (AID 449749); format: functional
T7 sequence (P9WMR3 whole entry): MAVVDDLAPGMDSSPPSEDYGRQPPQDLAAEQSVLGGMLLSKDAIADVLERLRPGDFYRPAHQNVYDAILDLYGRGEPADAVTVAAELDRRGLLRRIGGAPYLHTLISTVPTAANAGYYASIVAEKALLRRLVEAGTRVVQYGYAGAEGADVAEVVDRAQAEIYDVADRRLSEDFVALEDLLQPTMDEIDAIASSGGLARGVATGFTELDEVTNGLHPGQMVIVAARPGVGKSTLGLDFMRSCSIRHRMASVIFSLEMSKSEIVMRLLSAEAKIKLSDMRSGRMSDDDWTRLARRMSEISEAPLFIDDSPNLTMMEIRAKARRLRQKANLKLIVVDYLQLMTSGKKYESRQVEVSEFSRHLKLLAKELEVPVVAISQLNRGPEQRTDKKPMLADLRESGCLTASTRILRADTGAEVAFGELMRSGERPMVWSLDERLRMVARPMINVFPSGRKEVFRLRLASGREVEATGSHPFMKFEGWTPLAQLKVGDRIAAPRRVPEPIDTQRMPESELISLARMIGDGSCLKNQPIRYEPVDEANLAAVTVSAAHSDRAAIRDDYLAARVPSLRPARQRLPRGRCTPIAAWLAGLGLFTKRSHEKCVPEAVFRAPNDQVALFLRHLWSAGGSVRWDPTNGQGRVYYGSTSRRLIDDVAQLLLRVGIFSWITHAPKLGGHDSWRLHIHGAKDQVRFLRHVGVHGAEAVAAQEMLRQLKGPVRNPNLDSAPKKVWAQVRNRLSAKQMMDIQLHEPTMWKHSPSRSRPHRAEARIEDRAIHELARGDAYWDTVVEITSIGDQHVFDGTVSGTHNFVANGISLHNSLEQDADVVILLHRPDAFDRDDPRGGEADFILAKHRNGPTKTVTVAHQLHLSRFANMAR

[14] = system: Streptococcus sp. 'group A'; experiment: Streptococcus pyogenes SK(-)GAS viability under kanamycin – luminescence, BacTiterGlo, confirmation, counter-screen for streptokinase expression inhibitor project, dose response (AID 1900); format: functional, organism-based

T6 sequence (P11940 whole entry, the tested form may be a part): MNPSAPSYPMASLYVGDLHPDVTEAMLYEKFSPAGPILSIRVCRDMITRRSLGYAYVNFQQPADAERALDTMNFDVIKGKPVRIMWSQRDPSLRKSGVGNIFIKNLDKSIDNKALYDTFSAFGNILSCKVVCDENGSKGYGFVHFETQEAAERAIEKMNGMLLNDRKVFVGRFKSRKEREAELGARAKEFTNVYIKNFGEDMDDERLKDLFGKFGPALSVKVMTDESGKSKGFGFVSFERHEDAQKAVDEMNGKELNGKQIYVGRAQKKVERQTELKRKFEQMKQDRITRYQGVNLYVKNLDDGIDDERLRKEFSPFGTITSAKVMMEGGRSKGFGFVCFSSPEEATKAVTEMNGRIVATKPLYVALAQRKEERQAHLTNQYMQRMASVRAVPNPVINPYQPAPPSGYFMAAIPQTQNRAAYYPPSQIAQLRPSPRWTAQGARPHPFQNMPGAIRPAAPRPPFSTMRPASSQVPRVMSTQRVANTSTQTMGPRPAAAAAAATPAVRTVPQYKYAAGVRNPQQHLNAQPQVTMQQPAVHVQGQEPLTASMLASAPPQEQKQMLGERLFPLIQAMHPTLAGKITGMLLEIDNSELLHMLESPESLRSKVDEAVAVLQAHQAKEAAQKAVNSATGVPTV

Cc1cc2c(cc(C(=O)N3CCC(C(=O)NC4CCCC4)CC3)n2Cc2c(F)cccc2Cl)o1
AC50 [1]: 4.81 µM (active)
AC50 [2]: 49.4 µM (active)
AC50 [3]: 10 µM (active)

Clc1ccccc1-c1ccc(CN2CCN(c3ccccc3)CC2)o1
IC50 (Protein skinhead-1): > 100 µM (inactive)

O=C(Nc1ccc(S(=O)(=O)NC2=NCCCCC2)cc1)c1ccc(C(F)(F)F)cc1
IC50 [4]: 11.8 µM (active)

Cn1c(CC(=O)Nc2ccccc2)cc2ccccc21
EC50 (cells [5]): > 350 µM (not active)
EC50 (cells [6]): > 350 µM (not active)

O=C(C1=C[C@@H](C2CC2)C[C@@H](OCCCCO)O1)N1CCN(Cc2ccc3c(c2)OCO3)CC1
EC50 (cells [5]): > 350 µM (not active)
EC50 (cells [6]): > 350 µM (not active)

CCc1ccc(-c2nn(-c3cc(Cl)ccc3[N+](=O)[O-])c(=O)c3ccccc23)cc1
IC50 (Protein skinhead-1): > 100 µM (inactive)

CC(C)C(OC(=O)C1=Cc2ccccc2OC1)C(=O)NC1CCCC1 (stereo not drawn)
IC50 (Protein skinhead-1): > 100 µM (inactive)

CC/C(NN1CCCCCC1)=C1/C(=O)NC(=O)N(c2ccc(C)cc2)C1=O
EC50 (cells [5]): > 350 µM (not active)
EC50 (cells [6]): > 350 µM (not active)

CCOc1ccc(-c2nnc(-c3cccs3)o2)cc1
IC50 (Protein skinhead-1): > 100 µM (inactive)

O=C(Nc1cccc(C(=O)N2CCCCC2)c1)c1ccccc1Br
IC50 [4]: 16.8 µM (active)

CC(CCc1ccccc1)NC(=O)c1ccc(Br)cc1 (stereo not drawn)
AC50 [7]: 2.6 µM (active)

Cc1cc(-c2ccccc2)n(-c2ccc(C(=O)N3CCN(c4ncccn4)CC3)cc2)n1
IC50 [4]: 8.32 µM (active)

CCC(NCCc1ccccc1)=C1C(=O)N(C)C(=O)N(C)C1=O
IC50 [4]: 13.8 µM (active)

Cc1ccc(C(C(=O)NC(C)(C)C)N(Cc2ccccc2)C(=O)c2snc(C(N)=O)c2N)o1 (stereo not drawn)
IC50 [8]: > 20 µM (inactive)

COc1ccc(C(=O)C2CCCN(C(=O)C3CCOCC3)C2)cc1OC (stereo not drawn)
EC50 (cells [5]): > 350 µM (not active)
EC50 (cells [6]): > 350 µM (not active)

O=C(c1ccc([N+](=O)[O-])s1)N1CCN(c2ccccn2)CC1
AC50 [9]: 12.2 µM (active)

CC1CCN(Cc2nnnn2CCCC(=O)NCCc2cnn(C)c2)CC1
EC50 (cells [5]): > 350 µM (not active)
EC50 (cells [6]): > 350 µM (not active)

O=C(NCCCN1CCOCC1)c1cc2c3ccccc3nc-2c(-c2cccc(Br)c2)[nH]1
CC50 [10]: 19.4 µM (active)
IC50 [8]: > 20 µM (inactive)

COCCn1cc(C(=O)NCc2cccs2)c2c3ccccc3n(C)c2c1=O
IC50 (Protein skinhead-1): > 100 µM (inactive)

Cc1cccc(NC(=S)Nc2ccc(Cl)c(Cl)c2)c1
EC50 (Streptokinase A): 24.5 µM (active)
IC50 [11]: > 66 µM (inactive)
IC50 [12]: > 66 µM (inactive)

CC(C)OC(=O)c1cccc(-c2ccc(C=O)o2)c1
IC50 [4]: 14.5 µM (active)

COc1ccc(Cl)cc1N=C(N)Nc1nc(O)cc(CSc2ccc(C)cc2)n1
AC50 [1]: 1.82 µM (active)
AC50 [2]: > 70 µM (inactive)
AC50 [3]: 21.5 µM (active)

OCCN(CCO)c1ccc(C(c2ccccc2Cl)c2ccc(N(CCO)CCO)cc2Cl)c(Cl)c1
EC50 (Streptococcus): 8.65 µM (active)
AC50 [13]: 1.91 µM (active)
IC50 (Protein skinhead-1): > 100 µM (inactive)
EC50 [14]: 4.01 µM (active)
EC50 (Streptokinase A): 4.84 µM (active)

O=C(C=Cc1cccc(O)c1)c1ccccc1O
AC50 [7]: 2.81 µM (active)

CC(C)=CCc1c(O)cc(O)c2c(=O)c(O[C@@H]3O[C@@H](C)[C@H](O)[C@@H](O)[C@H]3O)c(-c3ccc(O)cc3)oc12
IC50 [8]: > 20 µM (inactive)

CCN(Cc1ccncc1)C(=O)c1cc(COc2ccc(F)cc2Cl)on1
IC50 [4]: 13.2 µM (active)

CNS(=O)(=O)c1ccc2c(c1)nc(S)n2C
IC50 (Protein skinhead-1): > 100 µM (inactive)
